We go through 48 compounds from patent US11912668B2, “GCN2 and perk kinase inhibitors and methods of use thereof” (Deciphera Pharmaceuticals, LLC, priority 2020, dated 2024).

Each structure is given as a SMILES string. pIC50: −log10 of the molar value.

The target in one assay is GCN2 kinase (Homo sapiens (Human), UniProt Q9P2K8). Put plainly: Biochemical assay for GCN2 (TR-FRET kinase activity assay). As to conditions: 1 mM ATP, 3-hour incubation. As for the experimental part:
Activity of GCN2 kinase was determined using a TR-FRET kinase activity assay (e.g. Riddle et al. Analytical Biochemistry (2006) 356(1) 108-116). Assays were conducted in 384-well plates (13 μL assay volume) using 2 nM GCN2 (Carna Biosciences), 130 nM GFP-EIf2α (Invitrogen), 0.2 mg/mL E. coli tRNA (sigma) and 1 mM ATP in kinase buffer (Invitrogen). Inhibition of GCN2 was measured by adding serial diluted test compound (final assay concentration of 0.5% DMSO) followed by a 3-hour incubation. Tb-peIF2α (pSer52) antibody (Invitrogen) (2 nM final assay concentration) in kinase buffer containing ETDA (final assay concentration of 20 mM) was added. After a 60 min incubation at room temperature, TR-FRET was monitored using an excitation wavelength of 340 nm and emission wavelengths of 490 nm and 520 nm. The emission ratio (520/490) at each compound concentration of was converted to percent inhibition using controls (i.e. reaction with no test compound and reaction with a known inhibitor) and IC50 values were calculated by fitting a four-parameter sigmoidal curve to the data using Prism (GraphPad software).
Background: In TR-FRET formats the signal depends on donor and acceptor labels being close together.

The next assay deals with PERK kinase (Homo sapiens (Human), UniProt Q9NZJ5). Nature of the assay: Biochemical assay for PERK (coupled pyruvate kinase/lactate dehydrogenase assay). As to conditions: 1 mM ATP, rate from 2-3 h time frame. The protocol: Activity of PERK kinase was determined spectroscopically using a coupled pyruvate kinase/lactate dehydrogenase assay that continuously monitors the ATP hydrolysis-dependent oxidation of NADH (e.g., Schindler et al. Science (2000) 289: 1938-1942). Assays were conducted in 384-well plates (100 μL final volume) using 10 nM PERK (from Beryllium), 0.25 mg/mL Myelin Basic Protein substrate, 1.5 units pyruvate kinase, 2.1 units lactate dehydrogenase, 1 mM phosphoenol pyruvate, 0.28 mM NADH and 1 mM ATP in assay buffer (100 mM Tris, pH 7.5, 15 mM MgCl2, 0.5 mM DTT, 0.004% (w/v) BSA, and 0.004% Triton X-100). Inhibition of PERK was measured by adding serial diluted test compound (final assay concentration of 1% DMSO). A decrease in absorption at 340 nm was monitored continuously for 6 hours at 30° C. on a multi-mode microplate reader (BioTek). The reaction rate was calculated using the 2-3 h time frame. The reaction rate at each concentration of compound was converted to percent inhibition using controls (i.e. reaction with no test compound and reaction with a known inhibitor) and IC50 values were calculated using software routines in Prism (GraphPad software).
Chain of PERK kinase (Q9NZJ5 other isoform, or with tags, fused parts or gaps): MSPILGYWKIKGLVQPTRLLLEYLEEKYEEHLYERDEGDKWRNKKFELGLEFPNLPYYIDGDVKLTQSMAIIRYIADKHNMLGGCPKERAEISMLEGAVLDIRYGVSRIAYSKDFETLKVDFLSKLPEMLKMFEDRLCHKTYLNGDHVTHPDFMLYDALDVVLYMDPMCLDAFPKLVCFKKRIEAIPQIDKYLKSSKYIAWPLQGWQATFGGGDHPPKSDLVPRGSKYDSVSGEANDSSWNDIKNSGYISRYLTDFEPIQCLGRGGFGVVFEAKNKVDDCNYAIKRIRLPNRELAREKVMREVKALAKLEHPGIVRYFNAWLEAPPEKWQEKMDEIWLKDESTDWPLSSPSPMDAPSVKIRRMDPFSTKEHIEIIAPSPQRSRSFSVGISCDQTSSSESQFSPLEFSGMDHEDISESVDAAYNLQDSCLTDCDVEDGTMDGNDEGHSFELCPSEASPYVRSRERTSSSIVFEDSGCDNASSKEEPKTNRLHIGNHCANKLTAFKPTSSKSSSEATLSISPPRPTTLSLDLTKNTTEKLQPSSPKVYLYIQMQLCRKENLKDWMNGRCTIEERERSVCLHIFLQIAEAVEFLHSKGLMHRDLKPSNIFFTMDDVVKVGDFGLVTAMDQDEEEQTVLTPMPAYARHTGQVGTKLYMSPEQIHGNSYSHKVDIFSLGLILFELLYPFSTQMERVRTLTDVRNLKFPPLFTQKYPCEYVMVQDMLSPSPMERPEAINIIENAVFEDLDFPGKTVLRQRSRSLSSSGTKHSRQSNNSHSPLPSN

Chain of GCN2 kinase (Q9P2K8 whole entry): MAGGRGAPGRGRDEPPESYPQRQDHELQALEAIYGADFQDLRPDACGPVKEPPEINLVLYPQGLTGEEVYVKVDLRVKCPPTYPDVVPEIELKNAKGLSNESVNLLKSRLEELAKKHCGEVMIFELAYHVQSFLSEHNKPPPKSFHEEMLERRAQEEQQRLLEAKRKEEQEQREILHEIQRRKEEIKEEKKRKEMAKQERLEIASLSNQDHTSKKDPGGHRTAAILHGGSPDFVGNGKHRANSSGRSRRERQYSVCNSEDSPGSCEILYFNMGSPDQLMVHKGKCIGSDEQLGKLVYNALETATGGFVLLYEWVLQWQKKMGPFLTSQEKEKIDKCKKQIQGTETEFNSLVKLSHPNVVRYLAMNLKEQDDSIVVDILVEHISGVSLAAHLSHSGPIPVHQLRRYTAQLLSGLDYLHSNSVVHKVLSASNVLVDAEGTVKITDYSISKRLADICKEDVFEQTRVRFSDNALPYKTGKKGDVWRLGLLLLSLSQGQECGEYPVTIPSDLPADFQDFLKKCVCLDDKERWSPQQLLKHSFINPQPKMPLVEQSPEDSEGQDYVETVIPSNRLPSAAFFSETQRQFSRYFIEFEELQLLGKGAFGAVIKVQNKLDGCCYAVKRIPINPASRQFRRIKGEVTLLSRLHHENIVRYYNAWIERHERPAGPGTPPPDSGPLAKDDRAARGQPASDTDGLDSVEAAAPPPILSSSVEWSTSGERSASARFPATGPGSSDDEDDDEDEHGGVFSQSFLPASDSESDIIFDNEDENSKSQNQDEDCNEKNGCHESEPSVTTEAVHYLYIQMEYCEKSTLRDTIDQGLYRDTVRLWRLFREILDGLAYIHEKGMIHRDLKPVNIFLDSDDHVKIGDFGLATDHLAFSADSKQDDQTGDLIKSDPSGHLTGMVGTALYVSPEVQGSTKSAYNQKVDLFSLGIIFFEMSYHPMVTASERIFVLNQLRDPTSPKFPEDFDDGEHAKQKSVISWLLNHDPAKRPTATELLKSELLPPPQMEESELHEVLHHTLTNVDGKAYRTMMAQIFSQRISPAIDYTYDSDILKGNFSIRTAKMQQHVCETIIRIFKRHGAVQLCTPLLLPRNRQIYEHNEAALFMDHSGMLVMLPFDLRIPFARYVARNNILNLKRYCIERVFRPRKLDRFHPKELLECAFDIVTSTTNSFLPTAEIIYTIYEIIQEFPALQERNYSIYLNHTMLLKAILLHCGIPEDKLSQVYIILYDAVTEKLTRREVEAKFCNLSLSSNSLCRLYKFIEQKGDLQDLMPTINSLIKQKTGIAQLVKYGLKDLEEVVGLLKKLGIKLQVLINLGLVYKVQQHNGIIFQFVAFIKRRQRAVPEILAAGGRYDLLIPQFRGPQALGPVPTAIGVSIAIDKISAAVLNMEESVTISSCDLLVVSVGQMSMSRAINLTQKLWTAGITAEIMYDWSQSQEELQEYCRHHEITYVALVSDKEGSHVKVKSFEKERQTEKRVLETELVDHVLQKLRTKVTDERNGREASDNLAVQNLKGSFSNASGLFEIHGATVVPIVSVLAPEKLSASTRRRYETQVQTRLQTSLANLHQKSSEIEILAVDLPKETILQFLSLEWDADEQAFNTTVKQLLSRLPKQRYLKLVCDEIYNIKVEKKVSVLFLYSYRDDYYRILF

Consider `CNc1ncc2cc(-c3cc(NS(=O)(=O)c4cc(Cl)cnc4OC)ccc3F)ccc2n1` [Example 54], for which the negative logarithm of the IC50 (pIC50) against GCN2 kinase was 6.00 to 6.30; against PERK kinase it was 6.30 to 7.00.

Consider `CNc1ncc2cc(-c3cccc(NS(=O)(=O)c4ccc(Br)c(C(F)(F)F)c4)c3F)ccc2n1` [Example 71], for which the negative logarithm of the IC50 (pIC50) at GCN2 kinase and against PERK kinase was 5.00 to 6.00 throughout. With `CNc1ncc2cc(-c3cccc(NS(=O)(=O)c4ccc(OC)c(C)c4)c3F)ccc2n1` [Example 91], the figures for the pIC50 on GCN2 kinase and against PERK kinase were 5.00 to 6.00 and 6.30 to 7.00, respectively. Turning to `CNc1ncc2cc(-c3cc(NS(=O)(=O)c4cc(Cl)cnc4OC)ccc3OC)c(C)nc2n1` [Example 82], the negative logarithm of the IC50 (pIC50) against GCN2 kinase and against PERK kinase was 5.00 to 6.00 each time. `COc1ncc(Cl)cc1S(=O)(=O)Nc1cccc(-c2ccc3cc(N)ncc3c2)c1F` [Example 29]: the pIC50 against GCN2 kinase is 6.30 to 7.00; against PERK kinase, at least 7.00.

In the case of `CNc1ncc2cc(-c3ccc(F)c(NS(=O)(=O)c4cc(Cl)cnc4OC)c3F)c(C)nc2n1` [Example 46], the pIC50 at GCN2 kinase is 6.30 to 7.00; on PERK kinase it was 5.00 to 6.00.

Consider `CNc1ncc2cc(-c3cccc(NS(=O)(=O)c4cc(Cl)cnc4OC)c3)ccc2n1` [Example 43], for which the pIC50 on GCN2 kinase and on PERK kinase was 5.00 to 6.00 throughout. For the compound `CNc1ncc2cc(-c3ccnc(NS(=O)(=O)c4cc(Cl)cnc4OC)c3F)c(NC)nc2n1` [Example 144], the negative logarithm of the IC50 (pIC50) against GCN2 kinase and against PERK kinase was 6.30 to 7.00 throughout. As for `CNc1ncc2cc(-c3cccc(NS(=O)(=O)c4ccc(OC)c(Cl)c4)c3F)ccc2n1` [Example 70], the negative-log IC50 (pIC50) was 5.00 to 6.00 on GCN2 kinase and 6.30 to 7.00 against PERK kinase. `CNc1nc2nc(NC(=O)C3CC3)ncc2cc1-c1cccc(NS(=O)(=O)c2cc(Cl)cnc2OC)c1F` [Example 172]: the negative logarithm of the IC50 (pIC50) against GCN2 kinase was 6.30 to 7.00.

With `CNc1ncc2cc(-c3cc(F)cc(NS(=O)(=O)c4cc(Cl)cc(C(C)(C)O)c4Cl)c3)c(NC)nc2n1` [Example 120], the pIC50 against GCN2 kinase is 5.00 to 6.00. As for `CNc1ncc2cc(-c3cccc(NS(=O)(=O)c4cc(C#N)ccc4OC)c3F)c(NC)nc2n1` [Example 145], the pIC50 is 6.30 to 7.00 against GCN2 kinase and 6.00 to 6.30 against PERK kinase. In the same order, the values of `CNc1ncc2cc(-c3cccc(NS(=O)(=O)c4cc(Cl)cnc4OC4COC4)c3F)c(NC)nc2n1` [Example 125] are 6.30 to 7.00 and 6.00 to 6.30. The like results for `CNc1cc2nc(C)c(-c3cc(NS(=O)(=O)c4cc(Cl)cnc4OC)c(F)cc3Br)cc2cn1` [Example 18] were, in that order, 6.00 to 6.30 and 5.00 to 6.00. In the same order, the values of `CNc1nc2nc(NC3CCC3)ncc2cc1-c1cccc(NS(=O)(=O)c2cc(Cl)cnc2OC)c1F` [Example 118] are at least 7.00 and 6.30 to 7.00.

Turning to `CNCCNc1nc2nc(NC)ncc2cc1-c1cccc(NS(=O)(=O)c2cc(Cl)cnc2OC)c1F` [Example 101], the figures for the negative-log IC50 (pIC50) against GCN2 kinase and on PERK kinase were 6.30 to 7.00 and 5.00 to 6.00, respectively. As to `CNc1nc2nc(NCCOC)ncc2cc1-c1cccc(NS(=O)(=O)c2cc(Cl)cnc2OC)c1F` [Example 139], the negative logarithm of the IC50 (pIC50) on GCN2 kinase was 6.30 to 7.00. For the compound `CNc1ncc2cc(-c3c(F)ccc(NS(=O)(=O)c4cc(Cl)cnc4OC)c3F)c(NC)nc2n1` [Example 73], the pIC50 against GCN2 kinase and on PERK kinase was 6.30 to 7.00 in each case. Turning to `CNc1ncc2cc(-c3cccc(NS(=O)(=O)c4cc(Cl)cc(C(N)=O)c4Cl)c3F)c(NC)nc2n1` [Example 112], the pIC50 against GCN2 kinase and at PERK kinase was 5.00 to 6.00 throughout. Turning to `CNc1ncc2cc(-c3cc(F)cc(NS(=O)(=O)c4cc(Cl)cnc4OC)c3)c(OC)nc2n1` [Example 103], the pIC50 on GCN2 kinase and against PERK kinase was 6.30 to 7.00 each time.

In the case of `CNc1ncc2cc(-c3cccc(NS(=O)(=O)c4cc(Cl)cnc4OC)c3F)c(OCCOC)nc2n1` [Example 147], the negative-log IC50 (pIC50) against GCN2 kinase was at least 7.00; against PERK kinase, 6.30 to 7.00. Regarding `CNc1ncc2cc(-c3cccc(NS(=O)(=O)c4cc(F)c(Br)cc4F)c3F)ccc2n1` [Example 72], the pIC50 against GCN2 kinase and on PERK kinase was 6.30 to 7.00 in each case. In the case of `CNc1ncc2cc(-c3cc(NS(=O)(=O)c4cc(Cl)cnc4OC)c(F)cc3F)c(NC)nc2n1` [Example 13], the pIC50 on GCN2 kinase was 6.00 to 6.30; against PERK kinase, 5.00 to 6.00. `CNc1ncc2cc(-c3cc(NS(=O)(=O)c4cc(Cl)cnc4OC)ccc3C(F)(F)F)ccc2n1` [Example 76]: the pIC50 against GCN2 kinase and at PERK kinase was 5.00 to 6.00 in each case. `CNc1ncc2cc(-c3cc(NS(=O)(=O)c4cccnc4)c(F)cc3C)c(C)nc2n1` [Example 1, N-(2-fluoro-4-methyl-5-(7-methyl-2-(methylamino)pyrido[2,3-d]pyrimidin-6-yl)phenyl)pyridine-3-sulfonamide]: the pIC50 against GCN2 kinase and against PERK kinase was 5.00 to 6.00 throughout.

Consider `CNc1ncc2cc(-c3cc(NS(=O)(=O)c4cc(Cl)cnc4OC)ccc3C)c(NC)nc2n1` [Example 24], for which the pIC50 against GCN2 kinase and on PERK kinase was 6.30 to 7.00 throughout.

For the compound `CNc1cc2ncc(-c3cc(F)cc(NS(=O)(=O)c4cc(Cl)cnc4OC)c3)cc2cn1` [Example 58], the negative-log IC50 (pIC50) at GCN2 kinase and against PERK kinase was 5.00 to 6.00 throughout. `CNc1ncc2cc(-c3cccc(NS(=O)(=O)c4ccc(Cl)nc4OC)c3F)c(NC)nc2n1` [Example 142]: the pIC50 against GCN2 kinase and at PERK kinase was 6.30 to 7.00 each time. Consider `CNc1nc2nc(N)ncc2cc1-c1cc(Cl)cc(NS(=O)(=O)c2cc(Cl)cnc2OC)c1` [Example 104], for which the pIC50 on GCN2 kinase and against PERK kinase was 5.00 to 6.00 each time. Regarding `CNc1ncc2cc(-c3cccc(NS(=O)(=O)c4cccc(C(=O)OC)c4Cl)c3F)c(NC)nc2n1` [Example 150], the negative-log IC50 (pIC50) at GCN2 kinase is 6.00 to 6.30.

Consider `CNc1ncc2cc(-c3cc(Cl)cc(NS(=O)(=O)c4cc(Cl)cnc4OC)c3)c(NC)nc2n1` [Example 94], for which the negative-log IC50 (pIC50) on GCN2 kinase is 6.00 to 6.30; on PERK kinase, 5.00 to 6.00. The like results for `CNc1ncc2cc(-c3cccc(NS(=O)(=O)c4cc(Cl)cnc4OC)c3)c(C)nc2n1` [Example 47] were, in that order, at least 7.00 and 6.30 to 7.00. In the same order, the values of `CNc1ncc2cc(-c3ccc(F)c(NS(=O)(=O)c4cc(Cl)cnc4OC)c3)c(C)nc2n1` [Example 20] are 5.00 to 6.00 and 5.00 to 6.00.

Turning to `CNc1nc2nc(NCC(F)(F)F)ncc2cc1-c1cccc(NS(=O)(=O)c2cc(Cl)cnc2OC)c1F` [Example 116], the figures for the negative logarithm of the IC50 (pIC50) at GCN2 kinase and against PERK kinase were at least 7.00 and 6.30 to 7.00, respectively. Turning to `CNc1ncc2cc(-c3cc(F)cc(NS(=O)(=O)c4cc(Cl)cnc4OC)c3)c(NCCOC)nc2n1` [Example 105], the negative-log IC50 (pIC50) against GCN2 kinase was 6.30 to 7.00; against PERK kinase, 5.00 to 6.00. For `CNc1cc2nc(C)c(-c3cc(NS(=O)(=O)c4cc(Cl)cnc4OC)ccc3C)cc2cn1` [Example 32], the negative-log IC50 (pIC50) against GCN2 kinase and against PERK kinase was at least 7.00 throughout. Regarding `CNc1ncc2cc(-c3cccc(NS(=O)(=O)c4cc(Cl)c(C)cc4OC)c3F)c(NC)nc2n1` [Example 157], at GCN2 kinase, the pIC50 is at least 7.00. Still for that read-out and setting: as for `CNc1nc2nc(NCC3COC3)ncc2cc1-c1cccc(NS(=O)(=O)c2cc(Cl)cnc2OC)c1F` [Example 149], the figure is 6.00 to 6.30; as for `CNc1ncc2cc(-c3cccc(NS(=O)(=O)c4cc(OC)ccc4OC)c3F)c(NC)nc2n1` [Example 140], 6.30 to 7.00; as for `CNc1ncc2cc(-c3cccc(NS(=O)(=O)c4ccc(C#N)cc4Cl)c3F)c(NC)nc2n1` [Example 141], 5.00 to 6.00. Still for that read-out and setting: as for `CNc1ncc2cc(-c3cccc(NS(=O)(=O)c4cc(C#N)cnc4OC)c3F)c(NC)nc2n1` [Example 152], the figure is 6.30 to 7.00; as for `CNc1ncc2cc(-c3cc(F)cc(NS(=O)(=O)c4cc(Cl)cnc4OC)c3)ccc2n1` [Example 37], 5.00 to 6.00; as for `CNc1ncc2cc(-c3cccc(NS(=O)(=O)c4cc(C(C)(C)C)ccc4OC)c3F)c(NC)nc2n1` [Example 134], 5.00 to 6.00.

On GCN2 kinase, `CNc1ncc2cc(-c3cccc(NS(=O)(=O)c4cccc(C(C)=O)c4Cl)c3F)c(NC)nc2n1` [Example 146] showed a pIC50 of 6.30 to 7.00. Still for that read-out and setting: the same measure for `CNc1nc2nc(NC3COC3)ncc2cc1-c1cccc(NS(=O)(=O)c2cc(Cl)cnc2OC)c1F` [Example 138]: 6.30 to 7.00. Still for that read-out and setting: the same measure for `CNc1ncc2cc(-c3cccc(NS(=O)(=O)c4cc(OC)c(Cl)cc4OC)c3F)c(NC)nc2n1` [Example 130]: 6.00 to 6.30; for `CNc1ncc2cc(-c3cccc(NS(=O)(=O)c4cccnc4C(F)(F)F)c3F)c(NC)nc2n1` [Example 131]: 6.30 to 7.00; for `CNc1nc2nc(NC(C)(C)C)ncc2cc1-c1cccc(NS(=O)(=O)c2cc(Cl)cnc2OC)c1F` [Example 124]: 6.30 to 7.00.

The term pIC50 denotes −log10 of the IC50, conventionally taken in molar units. Read a high pIC50 as a small IC50.
